The text below walks through data of BindingDB's records for doi:10.1021/np980119+ (University of California, 1999).

SMILES strings stand for the structures.

The assay can be described thus: Inhibition of phorbol ester-induced ornithine decarboxylase in human MCF7 cells after 6 hrs.
As for `Oc1ccc(/C=C/c2cc(O)cc(O)c2)cc1` [5-[(E)-2-(4-hydroxyphenyl)ethenyl]benzene-1,3-diol], the half-maximal inhibitory concentration (IC50) was 19 µM.

Compound `COc1cc(/C=C/c2cc(OC)c3c(c2)OC(C)(C)C=C3)ccc1O` [3,5'-dimethoxy-4-hydroxy-6'',6''-dimethylpyran[2'',3'':3',4']stilbene] displayed a half-inhibitory concentration (IC50) of 7.4 µM.

As to `O=c1c(-c2ccc(O)cc2)coc2cc(O)cc(O)c12` [Prunetol], the half-inhibitory concentration (IC50) is 26 µM.

As to `COc1cc(/C=C/C(=O)c2ccc3c(c2O)C=CC(C)(C)O3)ccc1O` [3-methoxy-4-hydroxylonchocarpin], the 50% inhibitory concentration (IC50) stood at 3.6 µM.

On to `COc1cc([C@@H]2CC(=O)c3c(O)c(CC=C(C)C)c4c(c3O2)C=CC(C)(C)O4)ccc1O` [(2S)-6-(gamma,gamma-dimethylallyl)-5,4'-dihydroxy-3'-methoxy-6'',6''-dimethylpyran[2'',3'':7,8]flavanone], for which the IC50 was 1.1 µM.

Consider `COc1ccc([C@@H]2CC(=O)c3cc(CC=C(C)C)c4c(c3O2)C=CC(C)(C)O4)cc1OC` [(2S)-6-(gamma,gamma-dimethylallyl)-3',4'-dimethoxy-6'',6''-dimethylpyran[2'',3'':7,8]flavanone], for which it took 2.3 µM to reach half-maximal inhibition (IC50).

`COc1cc(/C=C/c2ccc3c(c2)OC(C)(C)C=C3)cc(OC)c1OC` [3,4,5-trimethoxy-6'',6''-dimethylpyran[2'',3'':3',4']stilbene] yielded a 50% inhibitory concentration (IC50) of 3.9 µM.

As a reminder, the IC50 is the point on the concentration scale where inhibition reaches its midpoint.
